In PubChem BioAssay (NCI):
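Cultured in 96-well plates, cells were exposed to test compound for 48 hours across five concentrations. GI50 = concentration required for 50% inhibition of growth. TGI denotes the concentration required for complete inhibition of growth.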

How the values were obtained:
Experiment in all cases: NCI-60 cell line screen, 48 h
NCI-H226 lung = test system: NCI-H226 lung
NCI-H23 lung = test system: NCI-H23 lung
NCI-H460 lung = test system: NCI-H460 lung
NCI-H522 lung = test system: NCI-H522 lung
NCI/ADR-RES ovarian = test system: NCI/ADR-RES ovarian
OVCAR-3 ovarian = test system: OVCAR-3 ovarian
OVCAR-4 ovarian = test system: OVCAR-4 ovarian
OVCAR-5 ovarian = test system: OVCAR-5 ovarian
OVCAR-8 ovarian = test system: OVCAR-8 ovarian
PC-3 prostate = test system: PC-3 prostate
RPMI-8226 leukemia = test system: RPMI-8226 leukemia
RXF 393 renal = test system: RXF 393 renal
SF-268 CNS = test system: SF-268 CNS
SF-295 CNS = test system: SF-295 CNS
SF-539 CNS = test system: SF-539 CNS
SK-MEL-28 melanoma = test system: SK-MEL-28 melanoma
SK-MEL-5 melanoma = test system: SK-MEL-5 melanoma
SK-OV-3 ovarian = test system: SK-OV-3 ovarian
SN12C renal = test system: SN12C renal
SNB-19 CNS = test system: SNB-19 CNS
SNB-75 CNS = test system: SNB-75 CNS
SR leukemia = test system: SR leukemia
SW-620 colon = test system: SW-620 colon
T-47D breast = test system: T-47D breast
TK-10 renal = test system: TK-10 renal
U251 CNS = test system: U251 CNS
UACC-257 melanoma = test system: UACC-257 melanoma
UACC-62 melanoma = test system: UACC-62 melanoma
UO-31 renal = test system: UO-31 renal

## CC[C@]12C=CCN3CC[C@@]4(c5ccc(OC)cc5N(C)[C@H]4[C@@](O)(C(=O)OC)[C@@H]1OC(=O)CCCC[P+](c1ccc(C)cc1)(c1ccc(C)cc1)c1ccc(C)cc1)[C@@H]32
NCI-H226 lung
  TGI: 1450 nM
NCI-H23 lung
  GI50: 512 nM
  TGI: 1500 nM
NCI-H460 lung
  GI50: 498 nM
  TGI: 1710 nM
NCI-H522 lung
  GI50: 296 nM
  TGI: 1060 nM
NCI/ADR-RES ovarian
  GI50: 12000 nM
  TGI: 34400 nM
OVCAR-3 ovarian
  GI50: 425 nM
  TGI: 1560 nM
OVCAR-4 ovarian
  GI50: 636 nM
  TGI: 3770 nM
OVCAR-5 ovarian
  GI50: 592 nM
  TGI: 1530 nM
OVCAR-8 ovarian
  GI50: 1130 nM
  TGI: 2490 nM
PC-3 prostate
  GI50: 313 nM
  TGI: 1400 nM
RPMI-8226 leukemia
  GI50: 202 nM
  TGI: 1470 nM
RXF 393 renal
  GI50: 329 nM
  TGI: 1240 nM
SF-268 CNS
  GI50: 692 nM
  TGI: 2110 nM
SF-295 CNS
  GI50: 691 nM
  TGI: 1870 nM
SF-539 CNS
  GI50: 588 nM
  TGI: 1620 nM
SK-MEL-28 melanoma
  GI50: 437 nM
  TGI: 1600 nM
SK-MEL-5 melanoma
  GI50: 590 nM
  TGI: 1240 nM
SK-OV-3 ovarian
  GI50: 535 nM
  TGI: 1390 nM
SN12C renal
  GI50: 410 nM
  TGI: 1380 nM
SNB-19 CNS
  GI50: 342 nM
  TGI: 1320 nM
SNB-75 CNS
  GI50: 242 nM
  TGI: 854 nM
SR leukemia
  GI50: 365 nM
  TGI: 1500 nM
SW-620 colon
  GI50: 601 nM
  TGI: 1960 nM
T-47D breast
  GI50: 305 nM
  TGI: 1960 nM
TK-10 renal
  GI50: 1040 nM
  TGI: 2440 nM
U251 CNS
  GI50: 332 nM
  TGI: 1410 nM
UACC-257 melanoma
  GI50: 562 nM
  TGI: 1900 nM
UACC-62 melanoma
  GI50: 406 nM
  TGI: 1180 nM
UO-31 renal
  GI50: 2040 nM
  TGI: 7110 nM
